Test [1] addresses T1, DPAP1 (Plasmodium falciparum, UniProt Q8IIJ9).
T1 sequence (Q8IIJ9 28-209): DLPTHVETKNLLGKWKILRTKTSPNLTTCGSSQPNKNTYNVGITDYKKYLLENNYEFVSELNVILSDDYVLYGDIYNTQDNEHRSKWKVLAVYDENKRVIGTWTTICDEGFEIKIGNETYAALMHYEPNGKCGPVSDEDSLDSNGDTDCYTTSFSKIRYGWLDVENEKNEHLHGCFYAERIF
T1 sequence (Q8IIJ9 370-599): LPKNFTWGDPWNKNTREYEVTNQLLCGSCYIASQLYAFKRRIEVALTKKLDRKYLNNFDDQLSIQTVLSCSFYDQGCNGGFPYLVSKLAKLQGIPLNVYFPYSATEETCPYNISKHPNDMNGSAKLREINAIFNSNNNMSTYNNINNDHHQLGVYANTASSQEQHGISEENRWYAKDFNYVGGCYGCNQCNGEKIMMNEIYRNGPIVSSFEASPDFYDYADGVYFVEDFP
T1 sequence (Q8IIJ9 600-700): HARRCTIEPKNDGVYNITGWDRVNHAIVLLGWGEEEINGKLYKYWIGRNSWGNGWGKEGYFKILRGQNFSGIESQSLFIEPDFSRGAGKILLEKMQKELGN
The test is described as follows: biochemical. Details: species or system P. falciparum parasite lysate; continuous fluorogenic assay, time-dependent inactivation of DPAP1 in diluted parasite lysate, Pro-Arg-AMC 20 uM. The settings on record: for kinact: read-out: DPAP1 / k inact ·10^3; for kinact/KI: read-out: DPAP1 / k inact/K i ·10^−3 (M ^−1·s^−1). As for the experimental part: (§1) Inhibition of DPAP1 was directly measured in parasite lysates diluted 100‐fold in assay buffer using the DPAP1‐selective substrate Pro‐Arg‐AMC 42; 0.2 nM of […] was used for these inhibition studies. Note that because DPAP1 inhibition was directly measured in parasite lysates, inhibitors might have been partially inactivated through the action of aminopeptidases present in the lysates during the course of the assay. Therefore, the potency of the inhibitors might have been underestimated. […] The data were analysed according to the irreversible inhibition model shown in Eqn. 1. First, the progress curves (fluorescent units vs. time) were fitted to Eqn. 5, where F is the measured fluorescence at time t, F 0 the initial fluorescence, V 0 the initial turnover rate, and k obs the observed […] rate constant of inhibition measured at each inhibitor concentration 64.

A further test has as its target T2, CatC (bovine) (Bos taurus, UniProt Q3ZCJ8).
T2 construct: gene CTSC; native, purified to homogeneity from bovine spleen
The test is described as follows: biochemical. Also noted: continuous fluorogenic assay, time-dependent inactivation of 0.2 nM CatC, Gly-Arg-AMC 15 uM. The settings on record: for kinact: read-out: CatC / k inact ·10^3; for kinact/KI: read-out: CatC / k inact/K i ·10^−3 (M ^−1·s^−1). As for the experimental part: as §1

In test [2] the target is T3, DPAP3 (Plasmodium falciparum, UniProt Q8I1Y2). Nature of the test: cell-based. Also noted: native enzyme in live parasites (mature schizonts); species or system P. falciparum mature schizonts in red blood cells; competitive activity-based probe FY01 labelling in intact parasites, in-gel fluorescence densitometry. The settings on record: live parasites, 30 min pretreatment. As for the experimental part: Live parasites were treated with different concentrations of inhibitor for 30 min, and the residual level of DPAPs and FPs activities were labelled with FY01 and quantified by densitometry (Fig. 6A). […] Compounds with a P2 Trp or Tyr(NO2) are highly specific for DPAP3 in intact parasites. […] Inhibitors need to cross four membranes to reach DPAP3: the RBC, parasitophorous vacuole and parasite plasma membranes, plus the membrane of the apical organelle where DPAP3 resides 21. (The parasitophorous vacuole is a membrane‐bound structure within which the parasite grows and multiplies isolated from the RBC cytosol.) However, crossing of the parasitophorous vacuole membrane is not likely to be a limiting factor to reach DPAP3 since this membrane is generally permeable to small molecules. It is also likely that the apparent increased potency of Trp‐hPG‐VS in live parasites might be due to its accumulation into the DPAP3 acidic organelle via protonation of its free amine. However, we predict that this lysosomotropic effect likely occurs for all DPAP inhibitors presented here.  Figure 6 Selective inhibition of DPAP1 or DPAP3 in live parasites. Intact mature schizonts were pretreated for 30 min with increasing concentrations of inhibitor followed by 1 h treatment with FY01. Samples were then run in an SDS/PAGE gel and the in‐gel fluorescence measured using a fluorescence scanner. (A) Representative gel images obtained for each of the inhibitors. Fluorescent bands corresponding to the different cysteine proteases labelled by the probe are indicated with arrowheads (DPAP3, red; FPs, green; DPAP1, blue). (B) The fluorescence intensity of each of the indicated bands was quantified by densitometry using ImageJ, and the fluorescence values normalized to the DMSO control. […] Three technical replicates were performed; dose responses for a representative replicate are shown.
Target sequence in this assay (Q8I1Y2 entry or part of it): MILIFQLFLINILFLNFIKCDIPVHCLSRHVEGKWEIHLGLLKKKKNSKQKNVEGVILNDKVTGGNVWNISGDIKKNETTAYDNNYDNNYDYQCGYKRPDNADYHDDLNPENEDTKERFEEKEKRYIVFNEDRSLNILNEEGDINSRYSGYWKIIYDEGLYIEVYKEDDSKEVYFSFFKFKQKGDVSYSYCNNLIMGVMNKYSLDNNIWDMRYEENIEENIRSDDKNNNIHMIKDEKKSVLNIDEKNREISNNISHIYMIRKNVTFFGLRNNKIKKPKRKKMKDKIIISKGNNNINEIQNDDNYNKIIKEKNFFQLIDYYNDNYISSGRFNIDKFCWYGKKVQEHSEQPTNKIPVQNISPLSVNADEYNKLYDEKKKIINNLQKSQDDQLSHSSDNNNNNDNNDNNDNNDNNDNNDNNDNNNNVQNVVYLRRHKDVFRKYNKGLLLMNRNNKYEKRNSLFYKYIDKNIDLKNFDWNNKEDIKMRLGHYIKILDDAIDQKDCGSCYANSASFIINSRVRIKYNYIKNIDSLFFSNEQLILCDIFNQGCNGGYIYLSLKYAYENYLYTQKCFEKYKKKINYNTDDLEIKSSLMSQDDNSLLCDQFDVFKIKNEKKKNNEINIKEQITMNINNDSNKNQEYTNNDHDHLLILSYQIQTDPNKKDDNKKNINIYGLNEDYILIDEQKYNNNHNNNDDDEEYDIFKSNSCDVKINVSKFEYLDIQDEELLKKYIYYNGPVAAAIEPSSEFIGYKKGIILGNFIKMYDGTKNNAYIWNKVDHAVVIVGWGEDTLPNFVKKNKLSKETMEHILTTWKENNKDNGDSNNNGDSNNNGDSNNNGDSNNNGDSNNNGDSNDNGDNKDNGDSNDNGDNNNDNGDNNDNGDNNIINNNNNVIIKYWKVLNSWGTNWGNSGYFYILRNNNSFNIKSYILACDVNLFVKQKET

In test [3] the target is T3, DPAP3. Nature of the test: biochemical. Also noted: gene PF3D7_0404700; recombinant, baculovirus/SF9 insect cells, purified from culture supernatant by ion exchange, Ni-NTA and size exclusion; active-site titrated; continuous fluorogenic assay, time-dependent inactivation of 0.2 nM recombinant DPAP3, Met-nLeu(o-Bzl)-ACC 2.2 uM. The settings on record: for kinact: read-out: DPAP3 / k inact ·10^3; for kinact/KI: read-out: DPAP3 / k inact/K i ·10^−3 (M ^−1·s^−1). As for the experimental part: The data were analysed according to the irreversible inhibition model shown in Eqn. 1. First, the progress curves (fluorescent units vs. time) were fitted to Eqn. 5, where F is the measured fluorescence at time t, F 0 the initial fluorescence, V 0 the initial turnover rate, and k obs the observed […] rate constant of inhibition measured at each inhibitor concentration 64. […] The inhibition constants are reported in Fig. 3C and Table 2 (See also Fig. S2 for representative fits). Only one inhibitor, containing an amino‐1‐methyl‐benzyl (Amb) group in P2, was not able to inhibit DPAP3 in a time‐dependent manner under our assay conditions (Fig. 3D). This is probably due to the fact that this extended and rigid P2 AA (Fig. 3E) might prevent proper positioning of the [compound left out] group into the active site of DPAP3 to allow covalent modification of the catalytic cysteine. For this compound, a K i value for reversible inhibition was measured.
Target sequence in this assay (Q8I1Y2 entry or part of it): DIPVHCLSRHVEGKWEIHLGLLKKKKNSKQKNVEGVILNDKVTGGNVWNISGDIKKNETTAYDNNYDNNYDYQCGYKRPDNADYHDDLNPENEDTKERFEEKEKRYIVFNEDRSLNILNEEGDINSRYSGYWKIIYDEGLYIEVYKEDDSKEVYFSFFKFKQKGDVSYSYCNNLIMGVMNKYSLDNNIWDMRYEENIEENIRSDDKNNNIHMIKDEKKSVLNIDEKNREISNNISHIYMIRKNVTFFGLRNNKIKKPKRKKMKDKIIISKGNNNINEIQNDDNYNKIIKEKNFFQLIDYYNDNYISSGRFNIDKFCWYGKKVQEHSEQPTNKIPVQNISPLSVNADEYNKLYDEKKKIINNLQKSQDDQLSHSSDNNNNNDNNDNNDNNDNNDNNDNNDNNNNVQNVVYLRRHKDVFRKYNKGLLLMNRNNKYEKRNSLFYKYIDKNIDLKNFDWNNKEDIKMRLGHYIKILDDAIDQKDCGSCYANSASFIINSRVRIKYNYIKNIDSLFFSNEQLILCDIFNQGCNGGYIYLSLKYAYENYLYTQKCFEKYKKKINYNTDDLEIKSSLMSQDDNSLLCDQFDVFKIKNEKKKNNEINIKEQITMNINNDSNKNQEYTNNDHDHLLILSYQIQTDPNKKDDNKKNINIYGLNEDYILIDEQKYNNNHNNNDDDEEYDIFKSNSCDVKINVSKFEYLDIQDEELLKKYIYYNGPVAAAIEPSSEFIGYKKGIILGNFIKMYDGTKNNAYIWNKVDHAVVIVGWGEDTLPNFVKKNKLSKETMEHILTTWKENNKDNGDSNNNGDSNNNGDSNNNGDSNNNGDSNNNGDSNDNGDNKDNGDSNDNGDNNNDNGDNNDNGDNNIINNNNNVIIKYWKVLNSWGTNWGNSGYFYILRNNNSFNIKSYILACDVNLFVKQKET

The target in test [4] is T4, DPAP1 (Plasmodium falciparum, UniProt Q8IIJ9).
T4 construct: native enzyme in live parasites (mature schizonts)
T4 sequence (Q8IIJ9 1-700): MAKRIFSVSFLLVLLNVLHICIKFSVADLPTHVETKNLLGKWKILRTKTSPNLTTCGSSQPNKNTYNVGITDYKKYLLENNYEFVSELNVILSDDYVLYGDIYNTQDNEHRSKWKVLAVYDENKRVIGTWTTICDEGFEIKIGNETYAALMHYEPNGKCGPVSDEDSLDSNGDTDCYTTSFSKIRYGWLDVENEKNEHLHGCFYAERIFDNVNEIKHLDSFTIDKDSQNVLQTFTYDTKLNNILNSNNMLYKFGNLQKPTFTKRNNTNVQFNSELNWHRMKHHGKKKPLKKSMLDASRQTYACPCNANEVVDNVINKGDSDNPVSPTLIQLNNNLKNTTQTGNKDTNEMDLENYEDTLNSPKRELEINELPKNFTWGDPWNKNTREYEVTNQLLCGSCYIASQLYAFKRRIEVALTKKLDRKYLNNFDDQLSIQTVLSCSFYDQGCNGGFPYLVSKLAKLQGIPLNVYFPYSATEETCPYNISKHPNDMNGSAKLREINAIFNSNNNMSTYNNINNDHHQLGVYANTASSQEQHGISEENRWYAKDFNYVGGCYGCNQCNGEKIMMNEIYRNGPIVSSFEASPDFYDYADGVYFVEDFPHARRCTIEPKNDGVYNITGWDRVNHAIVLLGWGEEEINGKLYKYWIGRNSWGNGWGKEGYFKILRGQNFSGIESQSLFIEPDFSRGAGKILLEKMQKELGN
The test is described as follows: cell-based. Details: species or system P. falciparum mature schizonts in red blood cells; competitive activity-based probe FY01 labelling in intact parasites, in-gel fluorescence densitometry. The settings on record: live parasites, 30 min pretreatment. As for the experimental part: (§2) Live parasites were treated with different concentrations of inhibitor for 30 min, and the residual level of DPAPs and FPs activities were labelled with FY01 and quantified by densitometry (Fig. 6A). […] Compounds with a P2 Trp or Tyr(NO2) are highly specific for DPAP3 in intact parasites. […] Inhibitors need to cross four membranes to reach DPAP3: the RBC, parasitophorous vacuole and parasite plasma membranes, plus the membrane of the apical organelle where DPAP3 resides 21. (The parasitophorous vacuole is a membrane‐bound structure within which the parasite grows and multiplies isolated from the RBC cytosol.) However, crossing of the parasitophorous vacuole membrane is not likely to be a limiting factor to reach DPAP3 since this membrane is generally permeable to small molecules. It is also likely that the apparent increased potency of Trp‐hPG‐VS in live parasites might be due to its accumulation into the DPAP3 acidic organelle via protonation of its free amine. However, we predict that this lysosomotropic effect likely occurs for all DPAP inhibitors presented here. […] Samples were then run in an SDS/PAGE gel and the in‐gel fluorescence measured using a fluorescence scanner. […] (B) The fluorescence intensity of each of the indicated bands was quantified by densitometry using ImageJ, and the fluorescence values normalized to the DMSO control. […]

The next test concerns the target T5, FP1 (Plasmodium falciparum, UniProt P25805).
T5 construct: native falcipain 1 in live parasites (mature schizonts)
Nature of the test: cell-based. Also noted: species or system P. falciparum mature schizonts in red blood cells; competitive activity-based probe FY01 labelling in intact parasites, in-gel fluorescence densitometry. The settings on record: live parasites, 30 min pretreatment. As for the experimental part: as §2

T2 sequence (Q3ZCJ8 25-134): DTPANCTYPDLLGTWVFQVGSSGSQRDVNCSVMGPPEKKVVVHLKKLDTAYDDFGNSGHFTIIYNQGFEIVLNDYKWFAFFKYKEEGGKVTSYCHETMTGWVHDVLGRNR
T2 sequence (Q3ZCJ8 231-394): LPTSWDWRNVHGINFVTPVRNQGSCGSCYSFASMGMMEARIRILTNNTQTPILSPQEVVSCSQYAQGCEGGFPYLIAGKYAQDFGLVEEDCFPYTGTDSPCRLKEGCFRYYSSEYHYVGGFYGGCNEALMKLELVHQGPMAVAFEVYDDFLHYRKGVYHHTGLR
T2 sequence (Q3ZCJ8 395-463): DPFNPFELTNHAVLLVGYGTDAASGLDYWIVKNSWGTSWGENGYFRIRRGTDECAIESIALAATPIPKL
T5 sequence (P25805 whole entry): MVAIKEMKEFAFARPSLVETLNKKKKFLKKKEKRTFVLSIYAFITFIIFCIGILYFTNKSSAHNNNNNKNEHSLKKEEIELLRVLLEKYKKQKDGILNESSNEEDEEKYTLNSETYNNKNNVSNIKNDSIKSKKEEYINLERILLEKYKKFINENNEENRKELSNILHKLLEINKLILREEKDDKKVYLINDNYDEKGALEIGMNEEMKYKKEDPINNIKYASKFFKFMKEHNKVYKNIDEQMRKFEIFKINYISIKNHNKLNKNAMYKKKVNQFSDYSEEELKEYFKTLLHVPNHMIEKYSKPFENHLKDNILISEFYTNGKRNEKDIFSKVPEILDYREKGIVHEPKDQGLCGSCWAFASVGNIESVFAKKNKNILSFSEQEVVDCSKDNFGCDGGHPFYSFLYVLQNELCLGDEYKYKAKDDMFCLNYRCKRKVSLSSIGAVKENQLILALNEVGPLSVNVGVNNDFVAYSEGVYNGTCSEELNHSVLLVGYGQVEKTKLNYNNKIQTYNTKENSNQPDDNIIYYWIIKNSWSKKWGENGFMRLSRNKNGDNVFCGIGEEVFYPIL

As for `N[C@H](Cc1c[nH]c2ccccc12)C(=O)N[C@H](/C=C/S(=O)(=O)c1ccccc1)CCCCOCc1ccccc1` [D‐Trp‐nLeu(o‐Bzl)‐VS], the kinact on DPAP1 [1] was determined as 0.0055 ± 0.0007 s⁻¹; at CatC (bovine), 0.00197 ± 6e-05 s⁻¹; on DPAP3 [3], 0.0036 ± 0.0002 s⁻¹. The kinact/KI was found to be 44 ± 2 M⁻¹ s⁻¹ at DPAP1 [1], 1700 ± 100 M⁻¹ s⁻¹ at CatC (bovine) and 470 ± 10 M⁻¹ s⁻¹ at DPAP3 [3]. Besides, the IC50 (usually the concentration at which inhibition is half-maximal) at DPAP3 [2] was 2700 ± 1600 nM.

With `N[C@@H](Cc1c[nH]c2ccccc12)C(=O)N[C@H](/C=C/S(=O)(=O)c1ccccc1)CCCCOCc1ccccc1` [L‐Trp‐nLeu(o‐Bzl)‐VS], the kinact at DPAP1 [1] was 0.0022 ± 0.0001 s⁻¹; at CatC (bovine), 0.00174 ± 3e-05 s⁻¹; on DPAP3 [3], 0.0032 ± 0.0003 s⁻¹. Besides, the kinact/KI at DPAP1 [1] came out at 5800 ± 600 M⁻¹ s⁻¹; at CatC (bovine) it was 355000 ± 18000 M⁻¹ s⁻¹; on DPAP3 [3] it was 826000 ± 193000 M⁻¹ s⁻¹. Also, the IC50 at DPAP3 [2] worked out at 760 ± 150 nM.

`N[C@@H](Cc1ccc(O)c([N+](=O)[O-])c1)C(=O)N[C@H](/C=C/S(=O)(=O)c1ccccc1)CCCCOCc1ccccc1` [Tyr(NO2)‐nLeu(o‐Bzl)‐VS]: the kinact at DPAP1 [1] was determined as 0.0026 ± 0.0003 s⁻¹; at CatC (bovine), 0.0029 ± 0.0002 s⁻¹; at DPAP3 [3] it was 0.0027 ± 0.0002 s⁻¹. For the same molecule, the kinact/KI on DPAP1 [1] was 1100 ± 300 M⁻¹ s⁻¹; on CatC (bovine), 380 ± 50 M⁻¹ s⁻¹; at DPAP3 [3], 51000 ± 10000 M⁻¹ s⁻¹. In addition, the IC50 on DPAP3 [2] is 730 ± 170 nM.

As to `O=C(N[C@H](/C=C/S(=O)(=O)c1ccccc1)CCc1ccccc1)[C@@H]1CCCCN1` [hPro‐hPhe‐VS], the figures for the kinact on DPAP1 [1], on CatC (bovine) and at DPAP3 [3] were 0.0048 ± 0.0006 s⁻¹, 0.00167 ± 8e-05 s⁻¹ and 0.0021 ± 0.0001 s⁻¹, respectively. Also, the kinact/KI at DPAP1 [1] was found to be 1.23e+06 ± 400000 M⁻¹ s⁻¹; on CatC (bovine), 76000 ± 800 M⁻¹ s⁻¹; on DPAP3 [3], 69000 ± 13000 M⁻¹ s⁻¹. Moreover, the values for the IC50 at DPAP1 [4], on FP1 and at DPAP3 [2] were 80 ± 7 nM, 350 ± 80 nM and 160 ± 50 nM, respectively.

The values are drawn from publication PMC6851853, “Characterization of P. falciparum dipeptidyl aminopeptidase 3 specificity identifies differences in amino acid preferences between peptide‐based substrates and covalent inhibitors” (The Febs Journal, 2019).
